Reference: patent US8871452B2, “Methods for treatment of cardiovascular disease” (The Brigham and Women's Hospital, Inc., priority 2000, dated 2014)
Entries after “also recorded” stand apart in the source; their conditions may differ. Numbered stars: 1 amine (or outer) side, 2 acyl side, 3 side chain; on linkers, the order of the positions; unused ones are H or OH. Bridge positions count the residues as written; N and C are the ends. Square brackets hold non-standard residues; d marks the D form. Peptide text beside a SMILES is read from it. I, II: the chains in the order shown. Actinocin(9to1) = Cc1c2oc3c(C)ccc(C(=O)[*:1])c3nc-2c(C(=O)[*:2])c(N)c1=O; NMeV = CN[C@H](C(=O)O)C(C)C; Sar = CNCC(=O)O

Columns and labels:
Fit-1 mRNA expression = assay: Northern blot of Fit-1 (T1/ST2) mRNA induction in cultured neonatal rat cardiac myocytes, with or without 8% cyclic mechanical strain; assay type: cell-based; details: for induction of Fit-1 mRNA expression by 8% mechanical strain: FIG. 4, applied during strain, actinomycin D 5 μg/ml (2 and 4 hours), cyclohexamide 10 μg/ml; for strain-induced induction of Fit-1 mRNA expression / Fit-1 mRNA expression in the absence of strain: FIG. 3, H2O2 100 uM, TIRON 10 mN; for strain-induced induction of Fit-1 mRNA expression: 8% mechanical strain; for induction of Fit-1 mRNA expression in the absence of mechanical strain: FIG. 2, 3 hours, Ang II 50 nM; for induction of Fit-1 mRNA expression in the absence of mechanical strain / rank order potency for the induction of Fit-1 mRNA expression / induction of Fit-1 mRNA expression, agent alone: IL-1β 10 ng/ml; for induction of Fit-1 mRNA expression in the absence of mechanical strain / rank order potency for the induction of T1/ST2 mRNA expression: PMA 200 nM; for rank order potency for the induction of Fit-1 mRNA expression: 8% strain; for rank order potency for the induction of Fit-1 mRNA expression / induction of Fit-1 mRNA expression, agent alone: PMA 100 ng/ml; for induction of Fit-1 mRNA expression, agent alone: no strain; for rank order potency for the induction of T1/ST2 mRNA expression: strain 8%
From the text: The approach to mechanical stimulation used an apparatus that has multiple platens that contact the underside of silicone elastomer membranes to apply a spatially isotropic biaxial strain profile to the membrane (Schaffer J L, et al., J Orthop Res, 1993, 12:709-719; and U.S. Provisional Patent Application Ser. No. 60/144,134 filed on Jul. 16, 1999 entitled “AN APPARATUS FOR STUDYING MYOCARDIAL MECHANICAL OVERLOAD HYPERTROPHY AND USES THREFOR, by Richard T. Lee, and bearing and express mail no. EL110243781US). Six individual 78 mm membranes can be stretched at once with varying amplitudes of strain by controlling displacement of each platen with a stepper motor. Measured Green strains are accurate to ˜±0.25% at strains from 1-14% (Cheng G C, et al., Circ Res, 1997, 80:28-36; Brown T D, J Biomechanics, 2000, 33:3-14). Throughout this study, 8% biaxial strain was used.
Neonatal rat ventricular myocytes (NRVM) from 1-day old Sprague-Dawley rats were isolated by previously described methods (Springhorn J P, and Claycomb W C., Biochem J, 1989; 258:73-78; Arstall M A, et al., J Mol Cell Cardiol, 1998, 30:1019-25). NRVM were plated on the coated membrane dish at a density of 2,000,000 cells/dish in DMEM containing 7% FCS and incubated 24 h. Approximate cell confluence was 85-90%. NRVM were then made quiescent by washing with 10 ml of Hanks' balanced salt solution (HBSS, 138 mM NaCl, 5.3 mM KCl, 4.0 mM NaHCO3, 1.3 mM CaCl2, 0.5 mM MgCl2, 0.4 mM MgSO4, 0.4 mM KH2PO4, 0.3 mM Na2HPO4, 5.6 mM glucose; Life Technologies, Inc., Rockville, Md.) twice and incubating with 26 ml of DMEM containing 0.2% FCS for 48-72 hours.
The cDNA clones for differentially expressed genes were obtained by PCR using the GenBank sequences. Each clone was sequenced from both 5′ and 3′ ends to confirm identity. Positive elements in the DNA microarray were confirmed by Northern blot hybridization analysis in at least three independent experiments using three different sources of NRVMs. Total RNA was isolated by the guanidium thiocyanate and phenol chloroform method (Chomcyznski, et al., Anal. Biochem., 1987, 162:156-159). For Northern blotting, 15 μg RNA was loaded on a 1.0% agarose-formaldehyde gel (2.0 mol/l), transferred to a nylon membrane (Amersham Pharmacia Biotech AB, Piscataway, N.J.), and UV cross-linked with a UV Stratalinker (Stratagene, Inc., La Jolla, Calif.). Each probe was hybridized with ExpressHyb solution (Clontech Labs., Inc., Palo Alto, Calif.) at 68° C. for 1 hour. The membrane was washed with 2×SSC, 0.05% SDS solution for 30 to 40 minutes and three times at room temperature and 0.1×SSC, 0.1% SDS solution with continuous shaking at 50° C. for 40 minutes. The membrane was exposed to film at −80° C., and radiographs were scanned and analyzed with Optimas 5.0 software (Optimas Co./Media Cybernetics, Silver Springs, Md.). Densitometric units were normalized to the ethidium-stained 28S ribosomal subunit on the membrane.
T1/ST2 mRNA is induced by mechanical strain in cultured neonatal cardiac myocytes. Neonatal rat ventricular myocytes were isolated by collagenase digestion, plated on fibronectin-coated silicone membrane dishes at a density of 3.5 million cells/dish in 13 ml media as previously described (Yamamoto K, et al. J Biol Chem. 1999; 274:21840-21846). This technique yields cultures with ≧95% myocytes. Mechanical deformation was applied using a device that provides uniform biaxial cyclic strain as previously described (Yamamoto K, et al. J Biol Chem. 1999; 274:21840-21846). RNA was extracted (Qiagen) and Northern blotting was performed using as a probe a ^32P-labelled 600 bp PCR fragment specific to rat T1/ST2. Maximal induction occurs at 3 hours, is sustained for 9 hours and declines by 15 hours.

T1/ST2 mRNA = T1/ST2 mRNA induction in human adult vascular smooth muscle cells; assay type: cell-based
[1] = FIG. 9, interleukin-1 10 ng/ml, 1 and 3 hours

## C[C@@H]1C[C@@H]([C@H](O)CC2CC(=O)NC(=O)C2)C(=O)[C@@H](C)C1 [cyclohexamide]
Fit-1 mRNA expression
  induction of Fit-1 mRNA expression by 8% mechanical strain: blocked

## O=S(=O)(O)c1cc(O)c(O)c(S(=O)(=O)O)c1 [TIRON]
Fit-1 mRNA expression
  strain-induced induction of Fit-1 mRNA expression: slightly attenuated
  Fit-1 mRNA expression in the absence of strain: slightly attenuated

## tumor necrosis factor
T1/ST2 mRNA
  induction of T1/ST2 mRNA: not

## OO [H2O2, hydrogen peroxide]
Fit-1 mRNA expression
  strain-induced induction of Fit-1 mRNA expression: blocks
  Fit-1 mRNA expression in the absence of strain: does not induce

## Cc1c2oc3c(C)ccc(C(=O)N[C@@H]4C(=O)N[C@H](C(C)C)C(=O)N5CCC[C@H]5C(=O)N(C)CC(=O)N(C)[C@@H](C(C)C)C(=O)O[C@@H]4C)c3nc-2c(C(=O)N[C@@H]2C(=O)N[C@H](C(C)C)C(=O)N3CCC[C@H]3C(=O)N(C)CC(=O)N(C)[C@@H](C(C)C)C(=O)O[C@@H]2C)c(N)c1=O [Actinomycin D, actinomycin D] (I: T[dV]P[Sar][NMeV] / II: T[dV]P[Sar][NMeV]; ester I:1-I:C, II:1-II:C; linker I:N-II:N via Actinocin(9to1))
Fit-1 mRNA expression
  induction of Fit-1 mRNA expression by 8% mechanical strain: blocked

## CCCCCCCCCCCCCC(=O)O[C@@H]1[C@@H](C)[C@@]2(O)[C@@H](C=C(CO)C[C@]3(O)C(=O)C(C)=C[C@@H]23)[C@@H]2C(C)(C)[C@]12OC(C)=O [PMA]
T1/ST2 mRNA
  induction of T1/ST2 mRNA: not
Fit-1 mRNA expression
  induction of Fit-1 mRNA expression in the absence of mechanical strain: associated with an induction
Fit-1 mRNA expression; FIG. 5
  rank order potency for the induction of Fit-1 mRNA expression: PMA>strain>IL-1β
  induction of Fit-1 mRNA expression, agent alone: strongest induction
Fit-1 mRNA expression; [1]
  rank order potency for the induction of T1/ST2 mRNA expression: PMA>strain>interleukin-1β; also recorded: PMA>strain>IL-1

## angiotensin II (DRVYIHPF; Angiotensin-2; UniProt P01019 25-32, looked up)
Fit-1 mRNA expression
  induction of Fit-1 mRNA expression in the absence of mechanical strain: did not induce

## IL-1β: interleukin-1β, cytokine
T1/ST2 mRNA
  induction of T1/ST2 mRNA: induced
Fit-1 mRNA expression
  induction of T1/ST2 RNA, agent alone: induce
  induction of Fit-1 mRNA expression in the absence of mechanical strain: associated with an induction
Fit-1 mRNA expression; FIG. 5, 8% strain plus IL-1β 10 ng/ml
  induction of Fit-1 by mechanical strain in the presence of IL-1β: not further increased
Fit-1 mRNA expression; FIG. 5
  rank order potency for the induction of Fit-1 mRNA expression: PMA>strain>IL-1β
  induction of Fit-1 mRNA expression, agent alone: induced
Fit-1 mRNA expression; FIG. 9, 8% strain plus interleukin-1 10 ng/ml, 1 and 3 hours
  induction of T1/ST2 by mechanical strain in the presence of interleukin-1β: not further increased
Fit-1 mRNA expression; [1]
  rank order potency for the induction of T1/ST2 mRNA expression: PMA>strain>interleukin-1β
Fit-1 mRNA expression; FIG. 9, interleukin-1 10 ng/ml, 1 and 3 hours, listed as IL-1
  rank order potency for the induction of T1/ST2 mRNA expression: PMA>strain>IL-1
Fit-1 mRNA expression; FIG. 10, interleukin-1 10 ng/ml, 4 hours
  induction of T1/ST2 mRNA in the presence of infection with control adenovirus: induced
